Reference: patent US11360104B2, “Microbial-based biosensors” (TRUSTEES OF BOSTON UNIVERSITY, priority 2017, dated 2022)
Like-named read-outs stand apart in the source and are kept apart here. Each block holds one compound with its values, some of them ahead of it. {Cy5} = Cy5 fluorescent dye attached at the strand end

Experiments:
[1] = QD-FRET sensor progesterone titration in HEPES 1×; type: biochemical
Procedure: (§1) Fluorescent spectra were analyzed using MATLAB (Mathworks) and were fitted with a sum of 2 Gaussians (D=QD: FWHM=27 nm, λmax=607 nm; A=DNA-Cy5: FWHM=40 nm, λmax=669 nm). The area of each Gaussian was extracted and FD and FA are obtained respectively for the fluorescence of QD (donor) and Cy5 (acceptor).
Raw dose-response curves were obtained by plotting FA/FD as a function of the steroid concentration. Sensor output is the normalization of the fluorescent spectra of the donor and acceptor according to the following equation:
[formula] Where F=FA/FD, Fi is for [PRG]=i, Fmin stands for the average on 3 experiments of F for [PRG]=0 nM and Fmax stands for the average on 3 experiments of F for [PRG]=10 uM.
Non-normalized dose-response were fitted with Origin Pro 8 software with the non-linear equation:
Mathematically, the limit of detection in the signal domain (LD) is given by:LD=meanblank−3.3×σtest LD=meanblank−3.3×σtest where meanblank is the mean signal for a reagent blank and σtest is the pool standard deviation for all test samples in the dilution series, calculated as[9]:
Then the Limit of detection (LOD) is calculated using the parameters of the fit with the non-linear equation (XX) for y=LD:
(§2) Description for a typical experiment, using a molar ratio of QD/TF/DNA=1/4/18. QDs in (275 uL, 0.15 uM in HEPES 1×, pH 7.6 with 1% BSA) were mixed with AIY-his6 (275 uL, 0.6 uM in HEPES 1× pH 7.6) at room temperature for 45 min. Then, the double-stranded DNA labelled with a Cy5 fluorescent probe at the 3′ and 5′ ends (275 uL, 2.7 uM in HEPES 1× pH 7.6) was added to the mixture. After 30 min, 220 uL of HEPES 1× pH 7.5 and 330 uL of 5× binding buffer (25 mM MgCl2, 25% glycerol, and 250 mg/L Invitrogen™ UltraPure™ Salmon Sperm DNA in Tris-HCl 0.1M) were added and the mixture is left 15 more min at RT.
(§3) 50 uL of the sensor (QD/TF/DNA) was then splitted in 3×9 centrifuge tubes to which 10 uL of progesterone at the desired concentration is added. As such, the final concentration of QD/TF/DNA for the measurements is 25 nM/100 nM/450 nM. A 384 well plate was filled with 60 uL of each solution. The fluorescence intensity was monitored on a spectrofluorimeter from 535 nm to 800 nm exciting at 400 nm, equipped with a 450 nm long-pass filter in emission.

[2] = tested on: Pimelobacter simplex PinR (AIY20223.2; SEQ ID NO: 1), his-tagged (AIY-his6); test: QD-FRET steroid sensor (QD-PinR + DNA-Cy5), steroid-induced TF-DNA unbinding; type: biochemical; conditions: sensor 3 in HEPES 1×; 0 to 10 uM steroid
Procedure: as §1
Raw dose-response curves were obtained by plotting FA/FD as a function of the steroid concentration. Sensor output is the normalization of the fluorescent spectra of the donor and acceptor according to the following equation: […]
Non-normalized dose-response were fitted with Origin Pro 8 software with the non-linear equation: […]
The cross-reactivity of progesterone regarding the different steroids was calculated with the following equation: […]
CdSe/CdS/ZnS QDs were coated with a zwitterionic polymer bearing histamine anchoring functions (P1, SI). Once the hydrophobic QDs were transferred into H2O using a biphasic ligand exchange, his-tagged TFs were self-assembled on the QD surface to produce the QD-TF. Addition of the double stranded, Cy5-labeled TF-binding sequence completed probe assembly as the oligo binds to the TF in the absence of progesterone (PRG). The molar ratios of the QD, TF, and DNA in the sensor were controlled through the stoichiometric ratios of the mixed parts.
Two fluorescent spectra were recorded, one from the QDs and one from the Cy5 due to the FRET.
First, the DNA1 (most binding sequence) has been used to build the first biosensor, named sensor 1. For this sensor, a ratio of QD/TF/DNA of 1/4/18 was chosen. […] In order to homogenize the fluorescent signals in between batches and different sensor variations, FA/FD was normalized to give the signal output. Signal output is then plotted against PRG concentration to give a dose-response curve (FIG. 9C) This curve was fitted with the non-linear equation XX to obtain the half-maximal inhibitory concentration (IC50) (Table 13).
as §2, §3

[3] = biological target: PinR (Nocardioides simplex (Pimelobacter simplex), UniProt A0A0A1DUF2); test: Cross-reactivity assay of steroids using sensor 3; type: biochemical; conditions: sensor 3, HEPES 1×, 0 to 10 uM of steroids
Procedure: The cross-reactivity of progesterone regarding the different steroids was calculated with the following equation:
Description for a typical experiment, using a molar ratio of QD/TF/DNA=1/4/18.
as §3, with “As such, the final concentration of QD/TF/DNA for the measurements is 25 nM/100 nM/450 nM.” left out

[4] = tested on: Pimelobacter simplex; test: Solvent and steroid exposure growth curves
Description: In order to identify steroid binding Transcription Factors, a whole transcriptome RNA sequencing (RNA-Seq) screen was developed (FIG. 7). The growth of Pimelobacter simplex bacteria was profiled with respect to the starting inoculation density, solvent toxicity, and the addition of steroids (FIG. 16). […] P. simplex bacteria were screened against the steroid solvents ethanol (EtOH) and dimethyl sulfoxide (DMSO). […] Steroid growth curves were similarly performed using a starting OD of 0.005 and constant solvent dosing with titrations of steroids. […] P. simplex bacteria were grown in the presence of 700 μM testosterone, 21.88 μM progesterone, 87.50 μM estrone, 21.88 μM 17β-estradiol, 21.88 μM hydrocortisone, or 175.00 μM aldosterone concentrations were selected for comparison.
In order to properly determine the doubling time of the strain, growth curves were performed. All growth curves were done in 100 μL per well volumes in 96 well flat clear bottom black polystyrene TC-treated microplates which were individually wrapped with a lid and sterile (Corning #3603). Measurements were done by an Infinite M200 Pro (TECAN) spectrophotometer at the temperature suited for P. simplex. Readings were performed over 96 cycles of 15 minutes each at 600 nm absorbance with 25 flashes in a 3×3 (XY-Line) type reads per well. In between reads there was orbital shaking at 150 rpm frequency for a total of 10 minutes. In order to characterize the growth alone, a ½ serial dilution of 9 concentrations from 0.5-0.0020 OD600 nm were prepared in the respective media. Then each concentration was measured as previously described using a microplate reader (TECAN) and normalized against a media background control in technical triplicate. Afterward, an appropriate starting concentration of cells was chosen with a substantially long lag-phase, linear log phase, and a plateau of stationary-phase.
Once an appropriate starting cell concentration was chosen, a secondary growth curve was performed to test the toxicity levels of the solvents used to dissolve steroids of interest. Since the steroids used are heavily hydrophobic, they often need to be dissolved in organic solvents such as DMSO or ethanol which are toxic to bacteria at high concentrations. P. simplex was incubated under microplate reader conditions previously mentioned at a starting OD determined by the first growth curve with DMSO, ethanol, or H2O at ½ serial dilutions for a total of eight concentrations (50-0.39%) tested in technical triplicate. Two controls were included per solvent; a positive control without solvent and a media control which allowed for appropriate normalization. Solvent exposure growth curves allowed for choosing the maximum amount of solvent concentration that strains would sustain while maintaining relative viability in order to determine a range of steroid concentrations which could be used.
A tertiary growth curve was performed to test the toxicity levels of steroid specific to P. simplex. The strain was incubated under microplate reader conditions previously mentioned at a starting OD determined by the first growth curve and the highest solvent concentration corresponding to the steroid of interest with steroid at ½ serial dilutions for a total of seven concentrations tested in singlet. Testosterone, progesterone, 17β-estradiol, hydrocortisone, and aldosterone were all dissolved in ethanol while estrone was dissolved in DMSO. Three controls were included for each steroid; a positive control with the highest tolerable solvent concentration (%), a positive control with media, and a media control which allowed for normalization. Steroid exposure growth curves allowed for choosing the maximum amount of steroid concentration that P. simplex would sustain while maintaining relative viability.

Chain of PinR (A0A0A1DUF2 entry or part of it): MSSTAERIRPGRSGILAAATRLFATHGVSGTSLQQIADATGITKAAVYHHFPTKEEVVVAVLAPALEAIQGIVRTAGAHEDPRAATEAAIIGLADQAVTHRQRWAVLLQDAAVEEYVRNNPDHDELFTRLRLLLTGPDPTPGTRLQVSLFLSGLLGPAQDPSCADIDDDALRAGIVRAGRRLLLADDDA

Compound: DNA3: Cy5-labelled PinR binding probe 5Cy5-GCCTAACTAGCCGTTCGGCAAGTAATTC-3Cy5 (SEQ ID NO: 28) (DNA, 5' {Cy5}, 3' {Cy5}, backbone and methylation of C not given here; hybridized with complementary strand to form double-stranded fluorescent oligo)
[Pro]min ([1]; DNA 3, QD/TF/DNA 1/1/2): 0.040 µM
[Pro]min ([1]; DNA 3, QD/TF/DNA 1/1/18): 0.072 µM
[Pro]min ([1]; DNA 3, QD/TF/DNA 1/2/2): 0.053 µM
[Pro]min ([1]; DNA 3, QD/TF/DNA 1/2/18): 0.070 µM
[Pro]min ([1]; DNA 3, QD/TF/DNA 1/4/2): 0.050 µM
[Pro]min ([1]; DNA 3, QD/TF/DNA 1/4/18): 0.040 µM
[Pro]min ([1]; DNA 3, QD/TF/DNA 1/10/18): 0.065 µM
[Pro]min ([1]; DNA 3, QD/TF/DNA 1/16/18): 0.075 µM
[Pro]min ([1]; QD/TF/DNA=1/4/18, [QD]=25 nM): 0.040 µM

Compound: DNA1: Cy5-labelled PinR binding probe 5Cy5-GCCTAACTAGCCGTTCGGCTAGTTATTC-3Cy5 (SEQ ID NO: 24) (DNA, 5' {Cy5}, 3' {Cy5}, backbone and methylation of C not given here; hybridized with complementary strand to form double-stranded fluorescent oligo)
[Pro]min ([1]; QD/TF/DNA=1/4/18, [QD]=25 nM): 0.073 µM

Compound: C[C@H](O)[C@H]1CC[C@H]2[C@@H]3CC[C@@H]4C[C@H](O[C@@H]5O[C@H](C(=O)O)[C@@H](O)[C@H](O)[C@H]5O)CC[C@]4(C)[C@H]3CC[C@]12C [PRE-glu, 5β-Pregnane-3α,20-α-diol glucuronide]
cross-reactivity (in words) [2]: No cross-reactivity was observed
cross-reactivity [3]: No cross-reactivity

Compound: C[C@H](O)[C@H]1CC[C@H]2[C@@H]3CC[C@@H]4C[C@H](O)CC[C@]4(C)[C@H]3CC[C@]12C [PRE, 5β-Pregnane-3α,20-α-diol]
cross-reactivity (in words) [2]: No cross-reactivity was observed
cross-reactivity [3]: No cross-reactivity

Compound: DNA4: Cy5-labelled PinR binding probe 5Cy5-CCTTAACTAGCCGTTCTGTTAGTTATT C-3Cy5 (SEQ ID NO: 30) (DNA CCTTAACTAGCCGTTCTGTTAGTTATTC; DNA, 5' {Cy5}, 3' {Cy5}, backbone and methylation of C not given here; hybridized with complementary strand to form double-stranded fluorescent oligo)
[Pro]min ([1]; DNA 4, QD/TF/DNA 1/1/4): 0.024 µM
[Pro]min ([1]; DNA 4, QD/TF/DNA 1/1/18): 0.017 µM
[Pro]min ([1]; DNA 4, QD/TF/DNA 1/4/9): 0.066 µM
[Pro]min ([1]; DNA 4, QD/TF/DNA 1/4/18): 0.044 µM
[Pro]min ([1]; DNA 4, QD/TF/DNA 1/16/8): 0.190 µM
[Pro]min ([1]; QD/TF/DNA=1/4/18, [QD]=25 nM): 0.044 µM

highest solvent concentration that did not produce a physiological change in growth [4]: 0.70 % by volume
Compound: CCO [EtOH, ethanol]

Compound: CC(C)CCC[C@@H](C)[C@H]1CC[C@H]2[C@@H]3CC=C4C[C@@H](O)CC[C@]4(C)[C@H]3CC[C@]12C [CHL, Cholesterol]
cross-reactivity (in words) [2]: No cross-reactivity was observed
cross-reactivity [3]: No cross-reactivity

Compound: DNA2: Cy5-labelled PinR binding probe 5Cy5-GCCTAACTAGCCGATCGGCTAGTCATTC-3Cy5 (SEQ ID NO: 26) (DNA, 5' {Cy5}, 3' {Cy5}, backbone and methylation of C not given here; hybridized with complementary strand to form double-stranded fluorescent oligo)
[Pro]min ([1]; QD/TF/DNA=1/4/18, [QD]=25 nM): 0.051 µM

highest solvent concentration that did not produce a physiological change in growth ([4]; P. simplex vs solvent-free control): 0.35 % by volume
Compound: C[S+](C)[O-] [DMSO, dimethyl sulfoxide]
